# Where a name gives a salt, the structure may show the parent alone.
# Biological target: T1, human calcium-sensing receptor (CaSR) (Homo sapiens, UniProt P41180)
# T1 construct: expressed in transfected cells; host or cells: CHO cells (CHO/hCaSR)
# T1 sequence (P41180 20-1078): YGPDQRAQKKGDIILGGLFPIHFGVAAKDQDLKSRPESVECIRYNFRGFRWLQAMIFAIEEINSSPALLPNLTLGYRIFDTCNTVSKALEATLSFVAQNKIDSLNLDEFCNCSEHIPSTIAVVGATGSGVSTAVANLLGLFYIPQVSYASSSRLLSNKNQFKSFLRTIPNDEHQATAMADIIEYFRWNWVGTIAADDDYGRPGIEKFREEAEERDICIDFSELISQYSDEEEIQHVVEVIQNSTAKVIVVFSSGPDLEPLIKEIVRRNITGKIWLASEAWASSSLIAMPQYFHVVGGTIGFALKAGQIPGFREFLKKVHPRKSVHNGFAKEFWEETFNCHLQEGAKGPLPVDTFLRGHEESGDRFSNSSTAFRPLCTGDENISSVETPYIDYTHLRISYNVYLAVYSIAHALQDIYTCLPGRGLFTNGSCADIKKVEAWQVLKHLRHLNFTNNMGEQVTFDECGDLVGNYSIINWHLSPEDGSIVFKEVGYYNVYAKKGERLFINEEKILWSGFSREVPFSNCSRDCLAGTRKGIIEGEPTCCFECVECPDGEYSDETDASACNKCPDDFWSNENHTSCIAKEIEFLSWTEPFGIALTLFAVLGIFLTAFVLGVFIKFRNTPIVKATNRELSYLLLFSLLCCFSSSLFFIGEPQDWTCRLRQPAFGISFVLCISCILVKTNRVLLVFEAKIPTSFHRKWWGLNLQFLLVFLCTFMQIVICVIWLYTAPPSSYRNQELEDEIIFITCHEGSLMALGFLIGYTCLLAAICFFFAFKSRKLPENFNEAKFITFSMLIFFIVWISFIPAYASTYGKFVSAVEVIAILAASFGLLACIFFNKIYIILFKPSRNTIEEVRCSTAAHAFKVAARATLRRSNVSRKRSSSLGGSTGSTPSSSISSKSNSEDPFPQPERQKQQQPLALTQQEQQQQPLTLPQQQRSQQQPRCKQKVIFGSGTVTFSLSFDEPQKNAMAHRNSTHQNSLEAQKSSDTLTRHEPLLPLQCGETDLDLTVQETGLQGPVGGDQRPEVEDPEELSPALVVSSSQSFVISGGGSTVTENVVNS
# Experiment: Inhibitory activity on calcium-sensing receptor (CaSR) using intracellular calcium increase as an indicator (FLIPR, CHO/hCaSR)
# Type: cell-based
# Conditions: CHO/hCaSR cells; intracellular Ca increase induced by CaCl2; test compound 1.05 to 10,000 nM
# Description: Evaluation of inhibitory activity on calcium-sensing receptor (CaSR) using intracellular calcium increase as an indicator
# The preparation which is prepared by adding CHO/hCaSR to F12 medium (manufactured by Invitrogen) containing 10% fetal bovine serum to have 2×10^5 cells/mL was applied to a 384-well in an amount of 50 μL/well, and then incubated overnight in a CO2 incubator. The culture supernatant was completely removed, the assay buffer (20 mM HEPES, HBSS (Ca and Mg free) containing 2.5 mM probenecid, pH 7.4) containing Calcium 3 (manufactured by Molecular Devices), i.e., a fluorescent intracellular calcium indicator, was added thereto in an amount of 25 μL/well, and the mixture was maintained for 1 hour in a CO2 incubator. Meanwhile, Calcium 3 was prepared according to the protocol enclosed in FLIPR Calcium 3 Assay Kit (manufactured by Molecular Devices). After maintaining it for 1 hour, a solution in which the test compound is prepared to have 2.1 to 20,000 nM (final concentration of 1.05 to 10,000 nM) by an assay buffer was added thereto in an amount of 25 μL/well, and maintained for 15 minutes in a CO2 incubator. Then, the CaCl2 solution prepared to have […] by using the assay buffer was added in an amount of 25 μL/well, and the resulting intracellular Ca increase (i.e., fluorescence intensity) was measured over time using a fluorescence imaging plate reader (FLIPR, manufactured by Molecular Devices). From the data obtained, the difference between the fluorescence intensity before the addition of CaCl2 solution and the maximum fluorescence intensity after the addition of CaCl2 solution was calculated, and the 50% inhibition concentration (IC50) of the test compound was obtained.
row,SMILES,IC50
1,"C[C@@H](OC[C@H](O)CNC(C)(C)CC1Cc2ccccc2C1)c1ccc(F)cc1CCC(=O)O [Example 8, 3-{2-[(1R)-1-{[(2R)-3-{[1-(2,3-Dihydro-1H-inden-2-yl)-2-methylpropan-2-yl]amino}-2-hydroxypropyl]oxy}ethyl]-5-fluorophenyl}propanoic acid]",≤ 2400 nM
2,CC[C@@H](OC[C@H](O)CNC(C)(C)CC1Cc2ccccc2C1)c1ccc(Cl)cc1CCC(=O)O [Example 74],≤ 2250 nM
3,CC(C)Oc1cccc([C@@H](C)OC[C@H](O)CNC(C)(C)CC2Cc3ccccc3C2)c1CCC(=O)O [Example 64],≤ 2210 nM
4,CC(C)Oc1cccc([C@@H](C)OC[C@H](O)CNC(C)(C)CC2Cc3ccccc3C2)c1CCCCC(=O)O [Example 65],≤ 2090 nM
5,"C[C@@H](OC[C@H](O)CNC(C)(C)CC1Cc2ccccc2C1)c1ccccc1CCc1nn[nH]n1 [Example 81, (2R)-1-{[2-(2,3-Dihydro-1H-inden-2-yl)-1,1-dimethylethyl]amino}-3-[(1R)-1-{2-[2-(2H-tetrazol-5-yl)ethyl]phenyl}ethoxy]propan-2-ol formate]",≤ 2160 nM
6,C[C@@H](OC[C@H](O)CNC(C)(C)CC1Cc2ccccc2C1)c1cccc(F)c1CCCCC(=O)O [Example 48],≤ 2270 nM
7,"C[C@@H](OC[C@H](O)CNC(C)(C)CC1Cc2ccccc2C1)c1ccccc1CC(C)(C)C(=O)O [Example 82, 3-{2-[(1R)-1-{[(2R)-3-{[1-(2,3-Dihydro-1H-inden-2-yl)-2-methylpropan-2-yl]amino}-2-hydroxypropyl]oxy}ethyl]phenyl}-2,2-dimethylpropanoic acid]",≤ 2350 nM
8,Cc1cccc([C@@H](C)OC[C@H](O)CNC(C)(C)CC2Cc3ccccc3C2)c1CCCCC(=O)O [Example 47],≤ 2280 nM
9,COc1cc(F)cc([C@@H](C)OC[C@H](O)CNC(C)(C)CC2Cc3ccccc3C2)c1CCC(=O)O [Example 35],≤ 2260 nM
10,C[C@@H](OC[C@H](O)CNC(C)(C)CC1Cc2ccccc2C1)c1cc(Cl)ccc1CCC(=O)O [Example 70],≤ 2320 nM
11,CC[C@@H](OC[C@H](O)CNC(C)(C)CC1Cc2ccccc2C1)c1ccc(C)cc1CCC(=O)O [Example 40],≤ 2350 nM
12,C[C@@H](OC[C@H](O)CNC(C)(C)CC1Cc2ccccc2C1)c1cc(F)ccc1CCCCC(=O)O [Example 45],≤ 2270 nM
13,C[C@@H](OC[C@H](O)CNC(C)(C)CC1Cc2ccccc2C1)c1cccc(OC(F)F)c1CCC(=O)O [Example 66],≤ 2180 nM
14,Cc1cccc(CCC(=O)O)c1C(C)OC[C@H](O)CNC(C)(C)CC1Cc2ccccc2C1 (stereo partly drawn) [Example 32],≤ 2420 nM
15,CCOc1cccc([C@@H](C)OC[C@H](O)CNC(C)(C)CC2Cc3ccccc3C2)c1CCCCC(=O)O [Example 63],≤ 2150 nM
16,C[C@@H](OC[C@H](O)CNC(C)(C)CC1Cc2ccccc2C1)c1ccc(Cl)cc1CCC(=O)O [Example 69],≤ 2320 nM
17,CCC[C@@H](OC[C@H](O)CNC(C)(C)CC1Cc2ccccc2C1)c1cccc(C)c1CCC(=O)O [Example 52],≤ 2280 nM
18,CCC[C@@H](OC[C@H](O)CNC(C)(C)CC1Cc2ccccc2C1)c1ccc(Cl)cc1CCC(=O)O [Example 77],≤ 2190 nM
19,C[C@@H](OC[C@H](O)CNC(C)(C)CC1Cc2ccccc2C1)c1cc(F)cc(F)c1CCC(=O)O [Example 27],≤ 2310 nM
20,CC[C@@H](OC[C@H](O)CNC(C)(C)CC1Cc2ccccc2C1)c1cc(F)ccc1CCC(=O)O [Example 38],≤ 2330 nM
21,COc1cccc([C@@H](C)OC[C@H](O)CNC(C)(C)CC2Cc3ccccc3C2)c1CCC(=O)O [Example 17],≤ 2340 nM
22,C[C@@H](OC[C@H](O)CNC(C)(C)CC1Cc2ccccc2C1)c1cc(F)c(F)cc1CCCCC(=O)O [Example 30],≤ 2180 nM
23,"Cc1cc(-c2ccccc2[C@@H](C)OC[C@H](O)CNC(C)(C)CC2Cc3ccccc3C2)ccc1C(=O)O [Example 3, 2′-[(1R)-1-{[(2R)-3-{[1-(2,3-Dihydro-1H-inden-2-yl)-2-methylpropan-2-yl]amino}-2-hydroxypropyl]oxy}ethyl]-3-methylbiphenyl-4-carboxylic acid]",≤ 2190 nM

row,SMILES,IC50
1,C[C@@H](OC[C@H](O)CNC(C)(C)CC1Cc2ccccc2C1)c1ccc(Cl)cc1CCCCC(=O)O [Example 72],≤ 2190 nM
2,CCC[C@@H](OC[C@H](O)CNC(C)(C)CC1Cc2ccccc2C1)c1ccc(C)cc1CCC(=O)O [Example 54],≤ 2280 nM
3,C[C@@H](OC[C@H](O)CNC(C)(C)CC1Cc2ccccc2C1)c1cc(C(F)(F)F)ccc1CCCCC(=O)O [Example 50],≤ 2050 nM
4,CCC[C@@H](OC[C@H](O)CNC(C)(C)CC1Cc2ccccc2C1)c1cccc(Cl)c1CCC(=O)O [Example 78],≤ 2190 nM
5,CCC[C@@H](OC[C@H](O)CNC(C)(C)CC1Cc2ccccc2C1)c1cc(F)ccc1CCC(=O)O [Example 51],≤ 2270 nM
6,Cc1cc(CCCCC(=O)O)c([C@@H](C)OC[C@H](O)CNC(C)(C)CC2Cc3ccccc3C2)cc1F [Example 23],≤ 2200 nM
7,C[C@@H](OC[C@H](O)CNC(C)(C)CC1Cc2ccccc2C1)c1ccc(C#N)cc1CCC(=O)O [Example 25],≤ 2370 nM
8,CC[C@@H](OC[C@H](O)CNC(C)(C)CC1Cc2ccccc2C1)c1cc(F)c(C)cc1CCCCC(=O)O [Example 61],≤ 2140 nM
9,CC(OC[C@H](O)CNC(C)(C)CC1Cc2ccccc2C1)c1c(Cl)cccc1CCC(=O)O (stereo partly drawn) [Example 33],≤ 2320 nM
10,CC[C@@H](OC[C@H](O)CNC(C)(C)CC1Cc2ccccc2C1)c1cccc(F)c1CCC(=O)O [Example 39],≤ 2330 nM
11,Cc1cc(CCC(=O)O)c([C@@H](C)OC[C@H](O)CNC(C)(C)CC2Cc3ccccc3C2)cc1F [Example 22],≤ 2330 nM
12,CC[C@@H](OC[C@H](O)CNC(C)(C)CC1Cc2ccccc2C1)c1cc(Cl)ccc1CCC(=O)O [Example 73],≤ 2250 nM
13,"Cc1ccc([C@@H](C)OC[C@H](O)CNC(C)(C)CC2Cc3ccccc3C2)c(CCC(=O)O)c1 [Example 5, 3-{2-[(1R)-1-{[(2R)-3-{[1-(2,3-Dihydro-1H-inden-2-yl)-2-methylpropan-2-yl]amino}-2-hydroxypropyl]oxy}ethyl]-5-methylphenyl}propanoic acid]",≤ 2420 nM
14,CC[C@@H](OC[C@H](O)CNC(C)(C)CC1Cc2ccccc2C1)c1cc(F)c(C)cc1CCC(=O)O [Example 60],≤ 2270 nM
15,CC[C@@H](OC[C@H](O)CNC(C)(C)CC1Cc2ccccc2C1)c1cccc(Cl)c1CCC(=O)O [Example 75],≤ 2250 nM
16,Cc1cccc([C@@H](C)OC[C@H](O)CNC(C)(C)CC2Cc3ccccc3C2)c1CCC(=O)O [Example 42],≤ 2420 nM
17,Cc1ccc(CCCCC(=O)O)c([C@@H](C)OC[C@H](O)CNC(C)(C)CC2Cc3ccccc3C2)c1 [Example 46],≤ 2280 nM
18,CC(C)(CC1Cc2ccccc2C1)NC[C@@H](O)CO[C@@H](c1ccccc1CCC(=O)O)C1CC1 [Example 29],≤ 2360 nM
19,C[C@@H](OC[C@H](O)CNC(C)(C)CC1Cc2ccccc2C1)c1cccc(Cl)c1CCC(=O)O [Example 71],≤ 2320 nM
20,CC(OC[C@H](O)CNC(C)(C)CC1Cc2ccccc2C1)c1c(CCC(=O)O)ccc(F)c1F (stereo partly drawn) [Example 36],≤ 2310 nM
21,CCC[C@@H](OC[C@H](O)CNC(C)(C)CC1Cc2ccccc2C1)c1cccc(OC)c1CCC(=O)O [Example 55],≤ 2210 nM
22,CC[C@@H](OC[C@H](O)CNC(C)(C)CC1Cc2ccccc2C1)c1cccc(OC)c1CCC(=O)O [Example 41],≤ 2270 nM

# Source: patent US8183272B2, “Indanyl compounds” (Daiichi Sankyo Company, Limited, priority 2008, dated 2012)
